This is an account of results in ChEMBL document CHEMBL3734678, “Protective effect and mechanism of action of lupane triterpenes from Cornus walteri in cisplatin-induced nephrotoxicity” (2015).

The structures appear in SMILES notation. Calls of active or inactive are those of the source. The rule behind the calls is not given here.

Assay [1] concerns LLC-PK1. Briefly: Renoprotective activity in pig LLC-PK1 cells assessed as reduction in cisplatin-induced toxicity preincubated for 2 hrs followed by cisplatin challenge for 24 hrs by MTT assay. It counts as functional, cell-based. The settings on record: Sus scrofa. For orientation: Formazan colour is commonly taken as a measure of viable cells.
Assay [2] deals with LLC-PK1. Briefly: Inhibition of cisplatin-induced ERK phosphorylation in pig LLC-PK1 cells at 125 uM preincubated for 2 hrs followed by cisplatin challenge for 24 hrs by western blot analysis. The class given is cell-based. The settings on record: Sus scrofa.
Assay [3] has as its system LLC-PK1. The assay can be described thus: Renoprotective activity in pig LLC-PK1 cells assessed as reduction in cisplatin-induced toxicity at 125 uM preincubated for 2 hrs followed by cisplatin challenge for 24 hrs by MTT assay. Also on record: scale not given: the % may be the effect or the level left. It counts as functional, Sus scrofa.
Assay [4] concerns LLC-PK1. The assay can be described thus: Renoprotective activity against cisplatin induced toxicity in pig LLC-PK1 cells assessed as reduction in apoptotic cells at 125 uM preincubated for 2 hrs followed by cisplatin challenge for 24 hrs annexin-V-FITC and propidium iodide staining based flow cytometry. The class given is functional, cell-based. The settings on record: Sus scrofa. In general terms: In flow cytometry, cells or beads pass a laser one at a time.

Assay [5] deals with LLC-PK1. The assay can be described thus: Renoprotective activity in pig LLC-PK1 cells assessed as reduction in cisplatin-induced nucleus break-up at 125 uM preincubated for 2 hrs followed by cisplatin challenge for 24 hrs by phase-contrast microscopic analysis. The class given is functional, cell-based. The conditions noted are these: Sus scrofa.
Assay [6] deals with LLC-PK1. Briefly: Renoprotective activity in pig LLC-PK1 cells assessed as reduction in cisplatin-induced toxicity at 250 uM preincubated for 2 hrs followed by cisplatin challenge for 24 hrs by MTT assay. Also on record: scale not given: the % may be the effect or the level left. The class given is functional, Sus scrofa.
Assay [7] deals with LLC-PK1. Briefly: Inhibition of cisplatin-induced p38 phosphorylation in pig LLC-PK1 cells at 125 uM preincubated for 2 hrs followed by cisplatin challenge for 24 hrs by western blot analysis. The class given is cell-based. The settings on record: Sus scrofa. On the technique in general: Immunoblotting shows a protein as a band on a membrane.
In assay [8] the test system is LLC-PK1. The assay can be described thus: Renoprotective activity in pig LLC-PK1 cells assessed as reduction in cisplatin-induced progressive condensation at 125 uM preincubated for 2 hrs followed by cisplatin challenge for 24 hrs by phase-contrast microscopic analysis. It counts as functional, cell-based. The settings on record: Sus scrofa.
Assay [9] has as its system LLC-PK1. The assay can be described thus: Renoprotective activity in pig LLC-PK1 cells assessed as inhibition of cisplatin-induced cleaved caspase-3 expression at 125 uM preincubated for 2 hrs followed by cisplatin challenge for 24 hrs by western blot analysis. It counts as functional, cell-based. The settings on record: Sus scrofa.
Assay [10] deals with LLC-PK1. Briefly: Renoprotective activity in pig LLC-PK1 cells assessed as reduction in cisplatin-induced cell shrank at 125 uM preincubated for 2 hrs followed by cisplatin challenge for 24 hrs by phase-contrast microscopic analysis. The class given is functional, cell-based. The conditions noted are these: Sus scrofa.
In assay [11] the test system is LLC-PK1. Briefly: Inhibition of cisplatin-induced JNK phosphorylation in pig LLC-PK1 cells at 125 uM preincubated for 2 hrs followed by cisplatin challenge for 24 hrs by western blot analysis. The conditions noted are these: Sus scrofa. It counts as cell-based.

For the compound `C=C(C)[C@@H]1CC[C@]2(C(=O)O)CC[C@]3(C)[C@H](CC[C@@H]4[C@@]5(C)C[C@@H](OC(=O)/C=C/c6ccc(O)cc6)[C@H](O)C(C)(C)[C@@H]5CC[C@]43C)[C@@H]12`, the Activity entry in the assay with LLC-PK1 [1] was “Dose-dependent effect”.
Same read-out and setting: the entry for `C=C(C)[C@@H]1CC[C@]2(C(=O)O)CC[C@]3(C)[C@H](CC[C@@H]4[C@@]5(C)C[C@@H](O)[C@H](O)C(C)(C)[C@@H]5CC[C@]43C)[C@@H]12` is “Dose-dependent effect”; for `C=C(C)[C@@H]1CC[C@]2(C(=O)OC)CC[C@]3(C)[C@H](CC[C@@H]4[C@@]5(C)CC[C@@H](O)C(C)(C)[C@@H]5CC[C@]43C)[C@@H]12` it is “Dose-dependent effect”.
Take `C=C(C=O)[C@@H]1CC[C@]2(C(=O)O)CC[C@]3(C)[C@H](CC[C@@H]4[C@@]5(C)CC[C@H](O)C(C)(C)[C@@H]5CC[C@]43C)[C@@H]12`: the inhibition entry in the assay with LLC-PK1 [2], in the assay on LLC-PK1 [7], in the assay with LLC-PK1 [9] and with LLC-PK1 [11] was “Active” throughout. In addition, the Activity in the assay on LLC-PK1 [3] is 80%; in the assay on LLC-PK1 [6], 80%; in the assay with LLC-PK1 [1] it was “Dose-dependent effect”. Further, the outcome in the assay with LLC-PK1 [4], in the assay on LLC-PK1 [5], in the assay on LLC-PK1 [8] and in the assay on LLC-PK1 [10] was Active.
Take `C=C(C)[C@@H]1CC[C@]2(CO)CC[C@]3(C)[C@H](CC[C@@H]4[C@@]5(C)CC[C@H](OC(C)=O)C(C)(C)[C@@H]5CC[C@]43C)[C@@H]12`: the inhibition result with LLC-PK1 [2], with LLC-PK1 [7], with LLC-PK1 [9] and in the assay with LLC-PK1 [11] was “Active” throughout. In addition, the figures for the Activity with LLC-PK1 [3], with LLC-PK1 [6] and in the assay with LLC-PK1 [1] were 80%, 80% and “Dose-dependent effect”, respectively. For the same compound, the result in the assay on LLC-PK1 [4], in the assay on LLC-PK1 [5], with LLC-PK1 [8] and in the assay with LLC-PK1 [10] was Active.
For `C=C(C)[C@@H]1CC[C@]2(C)CC[C@]3(C)[C@H](CC[C@@H]4[C@@]5(C)CC[C@H](O)C(C)(C)[C@@H]5CC[C@]43C)[C@@H]12` [LUPEOL], the inhibition result in the assay with LLC-PK1 [2], in the assay with LLC-PK1 [7], in the assay with LLC-PK1 [9] and with LLC-PK1 [11] was “Active” throughout. Also, the Activity in the assay with LLC-PK1 [3] is 80%; in the assay with LLC-PK1 [6], 80%; with LLC-PK1 [1], “Dose-dependent effect”. Moreover, the outcome with LLC-PK1 [4], in the assay on LLC-PK1 [5], in the assay on LLC-PK1 [8] and with LLC-PK1 [10] was Active.
As for `C=C(C)[C@@H]1CC[C@]2(C(=O)O)CC[C@]3(C)[C@H](CC[C@@H]4[C@@]5(C)CC[C@H](O)C(C)(C)[C@@H]5CC[C@]43C)[C@@H]12` [BETULINIC ACID], the inhibition result in the assay with LLC-PK1 [2] was “inactive”. For the same compound, the figures for the Activity in the assay with LLC-PK1 [3], in the assay on LLC-PK1 [6] and in the assay on LLC-PK1 [1] were 80%, 80% and “Dose-dependent effect”, respectively. Also, the outcome in the assay on LLC-PK1 [4], in the assay on LLC-PK1 [5], with LLC-PK1 [8] and with LLC-PK1 [10] was Active. Further, the inhibition entry in the assay on LLC-PK1 [7], in the assay on LLC-PK1 [9] and in the assay on LLC-PK1 [11] was “Active” throughout.
